Source: PubChem BioAssay AID248 (DTP/NCI, 2004)
Where “and” joins values, the source holds several entries; their conditions need not be identical. Equal values may be shown once. Inconclusive results and toxic doses are left out.

Tested on: L1210 leukemia ip in BDF1 mice, survival T/C
Assay: NCI In Vivo Anticancer Drug Screen. Data for tumor model L1210 Leukemia (intraperitoneal) in B6D2F1 (BDF1) mice
Details: endpoint: mean survival time, higher = longer survival
How it was run: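 Antitumor effect is assessed in tumor-bearing animals. Survival in the compound arm is compared with a vehicle-dosed control arm and expressed as their quotient.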

[1] = dose: 100.0 mg/kg/injection, schedule: Q01DX009 (ip), vehicle: Klucel (hydroxypropylcellulose) (HPC)
[2] = dose: 100.0 mg/kg/injection, schedule: Q04DX003 (ip), vehicle: Klucel (hydroxypropylcellulose) (HPC)
[3] = dose: 200.0 mg/kg/injection, schedule: Q04DX003 (ip), vehicle: Klucel (hydroxypropylcellulose) (HPC)
[4] = dose: 400.0 mg/kg/injection, schedule: Q01DX009 (ip), vehicle: Klucel (hydroxypropylcellulose) (HPC)
[5] = dose: 400.0 mg/kg/injection, schedule: Q04DX003 (ip), vehicle: Klucel (hydroxypropylcellulose) (HPC)
[6] = dose: 100.0 mg/kg/injection, schedule: Q01DX001 (ip), vehicle: other
[7] = dose: 100.0 mg/kg/injection, schedule: Q01DX009 (ip), vehicle: saline
[8] = dose: 100.0 mg/kg/injection, schedule: Q04DX003 (ip), vehicle: saline
[9] = dose: 100.0 mg/kg/injection, schedule: Q01DX009 (ip), vehicle: saline with Tween-80
[10] = dose: 200.0 mg/kg/injection, schedule: Q01DX009 (ip), vehicle: saline with Tween-80
[11] = dose: 100.0 mg/kg/injection, schedule: Q04DX003 (ip), vehicle: saline with Tween-80
[12] = dose: 200.0 mg/kg/injection, schedule: Q04DX003 (ip), vehicle: saline with Tween-80
[13] = dose: 400.0 mg/kg/injection, schedule: Q01DX009 (ip), vehicle: saline with Tween-80
[14] = dose: 400.0 mg/kg/injection, schedule: Q04DX003 (ip), vehicle: saline with Tween-80
[15] = dose: 100.0 mg/kg/injection, schedule: Q01DX001 (ip), vehicle: saline
[16] = dose: 200.0 mg/kg/injection, schedule: Q01DX001 (ip), vehicle: saline
[17] = dose: 400.0 mg/kg/injection, schedule: Q01DX001 (ip), vehicle: saline
[18] = dose: 25.0 mg/kg/injection, schedule: Q01DX009 (ip), vehicle: water
[19] = dose: 50.0 mg/kg/injection, schedule: Q01DX009 (ip), vehicle: water
[20] = dose: 100.0 mg/kg/injection, schedule: Q04DX003 (ip), vehicle: water
[21] = dose: 200.0 mg/kg/injection, schedule: Q04DX003 (ip), vehicle: water
[22] = dose: 100.0 mg/kg/injection, schedule: Q01DX009 (ip), vehicle: water
[23] = dose: 200.0 mg/kg/injection, schedule: Q01DX009 (ip), vehicle: water

For `O=C(O)CCCC[Se][Se]CCCCC(=O)O`, the T/C (dose: 25.0 mg/kg/injection, schedule: Q01DX001 (ip), vehicle: Klucel (hydroxypropylcellulose) (HPC)) was 102 % of control, the T/C (dose: 50.0 mg/kg/injection, schedule: Q01DX001 (ip), vehicle: Klucel (hydroxypropylcellulose) (HPC)) was 96 % of control and the T/C (dose: 100.0 mg/kg/injection, schedule: Q01DX001 (ip), vehicle: Klucel (hydroxypropylcellulose) (HPC)) was 99 % of control.
For `O=C(COc1ccc(Cl)cc1)Nc1ccc(Cl)cc1`, the T/C [1] was 91 % of control, the T/C [2] was 92 % of control and the T/C [3] was 93 % of control. The T/C [4] was 88 % of control and the T/C [5] was 93 % of control.
In the case of `CCCN(CCC)NC(=O)c1ccc(N=NN(C)C)cc1`, the T/C (dose: 25.0 mg/kg/injection, schedule: Q01DX001 (ip), vehicle: other) is reported as 106 % of control, the T/C (dose: 50.0 mg/kg/injection, schedule: Q01DX001 (ip), vehicle: other) is reported as 98 % of control and the T/C [6] is reported as 106 % of control. For the same molecule, the T/C (dose: 100.0 mg/kg/injection, schedule: Q01DX001 (ip), vehicle: saline with Tween-80) was 101 % of control.
In the case of `COCc1ccc(COC)cc1`, the T/C [7] is reported as 96 % of control, the T/C [8] is reported as 103 % of control and the T/C (dose: 200.0 mg/kg/injection, schedule: Q01DX009 (ip), vehicle: saline) is reported as 95 % of control. For the same molecule, the T/C (dose: 200.0 mg/kg/injection, schedule: Q04DX003 (ip), vehicle: saline) was 108 % of control, the T/C (dose: 400.0 mg/kg/injection, schedule: Q01DX009 (ip), vehicle: saline) was 98 % of control and the T/C (dose: 400.0 mg/kg/injection, schedule: Q04DX003 (ip), vehicle: saline) was 100 % of control.
In the case of `C/C(=N\[N+](C)(C)C)c1ccc(Br)cc1`, the T/C (dose: 12.5 mg/kg/injection, schedule: Q04DX003 (ip), vehicle: saline) is reported as 109 % of control, the T/C (dose: 25.0 mg/kg/injection, schedule: Q01DX009 (ip), vehicle: saline) is reported as 92 % of control and the T/C (dose: 25.0 mg/kg/injection, schedule: Q04DX003 (ip), vehicle: saline) is reported as 100 % of control. The T/C (dose: 50.0 mg/kg/injection, schedule: Q01DX009 (ip), vehicle: saline) was 91 % of control, the T/C (dose: 50.0 mg/kg/injection, schedule: Q04DX003 (ip), vehicle: saline) was 104 % of control and the T/C [7] was 91 % of control. The T/C [8] was 102 % of control.
In the case of `CC(=O)Nc1ncc([N+](=O)[O-])s1`, the T/C (dose: 50.0 mg/kg/injection, schedule: Q01DX009 (ip), vehicle: saline with Tween-80) is reported as 97 % of control, the T/C [9] is reported as 98 % of control and the T/C [10] is reported as 104 % of control.
For `Clc1ccc(-c2nnc(-c3cccc4ccccc34)o2)cc1Cl`, the T/C [9] was 89 % of control, the T/C [11] was 86 % of control and the T/C [12] was 92 % of control. For the same molecule, the T/C [13] was 86 % of control and the T/C [14] was 86 % of control.
For `COC(=O)CCC(N=C=O)C(=O)OC` (stereo not given), the T/C [15] was 101 % of control, the T/C [16] was 98 % of control and the T/C [17] was 106 % of control.
`O=C1C(c2ccccc2)=c2c(c3ccccc3c3ccccc23)=C1c1ccccc1` was tested, and the T/C (dose: 50.0 mg/kg/injection, schedule: Q01DX001 (ip), vehicle: carboxymethylcellulose (CMC)) was 103 % of control and 100 % of control, the T/C (dose: 100.0 mg/kg/injection, schedule: Q01DX001 (ip), vehicle: carboxymethylcellulose (CMC)) was 100 % of control and 97 % of control and the T/C [9] was 96 % of control. The T/C (dose: 200.0 mg/kg/injection, schedule: Q01DX001 (ip), vehicle: carboxymethylcellulose (CMC)) was 100 % of control and 97 % of control, the T/C [10] was 90 % of control and the T/C (dose: 400.0 mg/kg/injection, schedule: Q01DX001 (ip), vehicle: carboxymethylcellulose (CMC)) was 94 % of control. The T/C [13] was 93 % of control.
With `CC(C(=O)O)N(CC(=O)O)CC(=O)O.[Co+2].[NH-]CC(=O)O` (stereo not given) the T/C (dose: 6.25 mg/kg/injection, schedule: Q01DX009 (ip), vehicle: water) was 106 % of control and 89 % of control, the T/C (dose: 12.5 mg/kg/injection, schedule: Q01DX009 (ip), vehicle: water) was 93 % of control and 106 % of control and 124 % of control and the T/C [18] was 102 % of control and 109 % of control. For the same molecule, the T/C [19] was 109 % of control and 114 % of control, the T/C [20] was 107 % of control and the T/C [21] was 105 % of control.
`CC(C)C1(C(C)C)NC(=O)NC1=O` was tested, and the T/C [6] was 98 % of control, the T/C (dose: 100.0 mg/kg/injection, schedule: Q01DX009 (ip), vehicle: other) was 101 % of control and the T/C (dose: 100.0 mg/kg/injection, schedule: Q04DX003 (ip), vehicle: other) was 102 % of control. The T/C (dose: 200.0 mg/kg/injection, schedule: Q01DX001 (ip), vehicle: other) was 98 % of control, the T/C (dose: 200.0 mg/kg/injection, schedule: Q01DX009 (ip), vehicle: other) was 106 % of control and the T/C (dose: 200.0 mg/kg/injection, schedule: Q04DX003 (ip), vehicle: other) was 98 % of control. The T/C (dose: 400.0 mg/kg/injection, schedule: Q01DX001 (ip), vehicle: other) was 106 % of control, the T/C (dose: 400.0 mg/kg/injection, schedule: Q01DX009 (ip), vehicle: other) was 107 % of control and the T/C (dose: 400.0 mg/kg/injection, schedule: Q04DX003 (ip), vehicle: other) was 100 % of control.
`OC(CC(O)(C(F)(F)F)C(F)(F)F)c1cccc(Cl)c1` (stereo not given) was tested, and the T/C (dose: 50.0 mg/kg/injection, schedule: Q01DX009 (ip), vehicle: gum acacia) was 96 % of control, the T/C (dose: 100.0 mg/kg/injection, schedule: Q01DX009 (ip), vehicle: gum acacia) was 94 % of control and the T/C (dose: 100.0 mg/kg/injection, schedule: Q04DX003 (ip), vehicle: gum acacia) was 104 % of control. The T/C (dose: 200.0 mg/kg/injection, schedule: Q04DX003 (ip), vehicle: gum acacia) was 95 % of control.
For `CS(=O)(=O)OCC(=O)NCC(O)CNC(=O)COS(C)(=O)=O`, the T/C (dose: 75.0 mg/kg/injection, schedule: Q01DX015 (ip), vehicle: saline) was 151 % of control, the T/C (dose: 80.0 mg/kg/injection, schedule: Q01DX009 (ip), vehicle: saline) was 153 % of control and the T/C (dose: 120.0 mg/kg/injection, schedule: Q01DX009 (ip), vehicle: saline) was 180 % of control. For the same molecule, the T/C (dose: 150.0 mg/kg/injection, schedule: Q01DX015 (ip), vehicle: saline) was 164 % of control and the T/C (dose: 180.0 mg/kg/injection, schedule: Q01DX009 (ip), vehicle: saline) was 156 % of control and 164 % of control.
With `CC1=CC(C)(C)NC(=S)N1c1ccc(C)cc1` the T/C [2] was 104 % of control, the T/C [3] was 93 % of control and the T/C [5] was 91 % of control.
For `COc1cc(/C=N/NC(=O)CC(C)O)ccc1O` (stereo not given), the T/C [15] was 104 % of control, the T/C [16] was 102 % of control and the T/C [17] was 104 % of control.
In the case of `CC(C)(O)C(Cc1ccccc1)c1ccccc1` (stereo not given), the T/C (dose: 6.25 mg/kg/injection, schedule: Q04DX002 (ip), vehicle: saline with Tween-80) is reported as 91 % of control, the T/C (dose: 12.5 mg/kg/injection, schedule: Q04DX002 (ip), vehicle: saline with Tween-80) is reported as 98 % of control and the T/C (dose: 25.0 mg/kg/injection, schedule: Q04DX002 (ip), vehicle: saline with Tween-80) is reported as 102 % of control.
`CCOC(=O)c1cncc(C(=O)OCC)c1` was tested, and the T/C (dose: 50.0 mg/kg/injection, schedule: Q01DX009 (ip), vehicle: Klucel (hydroxypropylcellulose) (HPC)) was 100 % of control, the T/C [1] was 100 % of control and the T/C [2] was 101 % of control. For the same molecule, the T/C (dose: 200.0 mg/kg/injection, schedule: Q01DX009 (ip), vehicle: Klucel (hydroxypropylcellulose) (HPC)) was 104 % of control, the T/C [3] was 92 % of control and the T/C [4] was 112 % of control. For the same molecule, the T/C [5] was 100 % of control.
In the case of `CC([NH-])=O.CC([NH-])=O.[Pt+2]`, the T/C [22] is reported as 105 % of control, the T/C [20] is reported as 101 % of control and the T/C [23] is reported as 95 % of control. For the same molecule, the T/C [21] was 103 % of control.
In the case of `O=C(C(=O)c1ccccc1)c1ccccc1`, the T/C [18] is reported as 102 % of control, the T/C [19] is reported as 96 % of control and the T/C [22] is reported as 102 % of control. The T/C [11] was 101 % of control, the T/C [23] was 107 % of control and the T/C [12] was 97 % of control. For the same molecule, the T/C (dose: 400.0 mg/kg/injection, schedule: Q01DX009 (ip), vehicle: water) was 98 % of control and the T/C [14] was 101 % of control.
